In US20170058314A1, “NOVEL METHODOLOGY FOR IDENTIFYING ANTI-PERSISTER ACTIVITY AND ANTIMICROBIAL SUSCEPTIBILITY FOR BORRELIA BURGDORFERI AND OTHER BACTERIA” (priority 2014, published 2017):
Values after ≈ are worked out from the molar mass of the structure shown. Counter-ions that a name gives are not always drawn.

Key:
[1] = test system: B. burgdorferi (growing, strain B31); assay: MIC determination, standard microdilution method; assay type: cell-based, Borrelia burgdorferi; conditions: for MIC: Borreliella burgdorferi, growing B. burgdorferi, read-out: MIC
[2] = test system: stationary phase B. burgdorferi persisters (strain B31); assay: NCI compound library screen, SYBR Green I/PI assay (plate reader); conditions: for viability at 50 µM / viability at 20 µM: Borreliella burgdorferi, 168 h; for viability at 20 µM: read-out: Residual viable cells (%) 20 μM (SYBR Green I/PI assay); for Residual viable cells (%) 20 μM (SYBR Green I/PI assay): seven day old stationary phase; for Residual viable cells (%) 20 μM (SYBR Green I/PI assay) / Residual viable cells (SYBR Green I/PI assay): 7 days; for Residual viable cells (SYBR Green I/PI assay): 50 μM, seven day old stationary phase culture
[3] = test system: stationary phase B. burgdorferi persisters (strain B31); assay: NCI compound library rescreen, epifluorescence microscope counting; conditions: for viability at 50 µM / viability at 20 µM: Borreliella burgdorferi, 168 h; for viability at 20 µM: read-out: Residual viable cells (%) 20 μM (epifluorescence microscope counting); for Residual viable cells (%) 20 μM (epifluorescence microscope counting) / Residual viable cells (%) 50 μM (epifluorescence microscope counting): seven day old stationary phase; for Residual viable cells (%) 20 μM (epifluorescence microscope counting) / Residual viable cells (epifluorescence microscope counting) / Residual viable cells (%) 50 μM (epifluorescence microscope counting): 7 days; for Residual viable cells (epifluorescence microscope counting) / Residual viable cells (%) 50 μM (epifluorescence microscope counting): 50 μM; for Residual viable cells (epifluorescence microscope counting): seven day old stationary phase culture
[4] = read-out: Residual viable cells (SYBR Green I/PI assay)
[5] = read-out: Activity against persisters (residual viable cell percentage)
[6] = read-out: Residual viable cells (epifluorescence microscope counting)
[7] = read-out: Residual viable cells (%) 50 μM (epifluorescence microscope counting)

Compound: O=C1c2ccccc2C(=O)c2c(NCCNCCO)ccc(O)c21 [NSC299187, 9,10-Anthracenedione, 1-hydroxy-4-[[2-[(2-hydroxyethyl)amino]ethyl]amino]-]
- MIC [1]: 3.26 to 6.52 µg/mL (≈ 9.99 to 20 µM)
- viability at 50 µM [2, 4]: 5%
- viability at 50 µM [3, 5]: 13%
- viability at 50 µM [3, 6]: 13%

Compound: Cc1c2cc[n+](CCN3CCCCC3)cc2c(C)c2c1[nH]c1ccc(O)cc12 [NSC311153, 9-Hydroxy-2-(2-piperidinylethyl)ellipticinium acetate]
- viability at 50 µM [2, 4]: 45%
- viability at 50 µM [3, 6]: 26%

Compound: O=C1c2ccccc2C(=O)c2c(O)c(NCCNCCO)cc(O)c21 [NSC316157, 9,10-Anthracenedione, 1,4-dihydroxy-2-[[2-[(2-hydroxyethyl)amino]ethyl]amino]-]
- viability at 50 µM [2, 4]: 0%
- viability at 50 µM [3, 6]: 23%

Compound: Cc1ccc(NCCN(C)C)c2c(=O)c3cc(O)ccc3sc12 [NSC317003, 9H-Thioxanthen-9-one, 1-[[2-(dimethylamino)ethyl]amino]-7-hydroxy-4-methyl-, monohydriodide]
- viability at 50 µM [2, 4]: 29%
- viability at 50 µM [3, 6]: 30%

Compound: C=CCNc1ncnc2sc(SC)nc12 [NSC343783, N-Allyl-2-(methylthio)[1,3]thiazolo[5,4-d]pyrimidin-7-amine]
- viability at 50 µM [2, 4]: 67%
- viability at 50 µM [3, 6]: 20%

Compound: CC1Oc2cc3c(-c4c(O)cc(O)c5c(O)c6c(cc45)OC(C)C(C)C6=O)c(O)cc(O)c3c(O)c2C(=O)C1C (centres unmarked) [NSC345647, Chaetochromin]
- MIC [1]: 2.74 to 5.47 µg/mL (≈ 5.01 to 10 µM)
- viability at 20 µM [2]: 31%
- viability at 50 µM [2, 4]: 8%
- viability at 50 µM [3, 5]: 22%
- viability at 20 µM [3]: 33%
- viability at 50 µM [3, 7]: 22%
- viability at 50 µM [3, 6]: 22%

Compound: O=C1c2cccc(NCCCNCCO)c2C(=O)c2cccc(NCCCNCCO)c21 [NSC363998, Anthracene-9,10-dione, 1,5-bis[3-[[(2-hydroxyethyl)amino]propyl]amino]-9,10-dihydro-, dihydrochloride]
- viability at 20 µM [2]: 22%
- viability at 50 µM [2, 4]: 0%
- viability at 20 µM [3]: 14%
- viability at 50 µM [3, 7]: 13%
- viability at 50 µM [3, 6]: 13%

Compound: O=c1c(O)c(-c2ccc(O)c(O)c2)oc2cc(O)ccc12 [NSC407010, 2-(3,4-dihydroxyphenyl)-3,7-dihydroxy-4H-1-benzopyran-4-one]
- viability at 50 µM ([2]; read-out: Residual viable cells (SYBR Green I/PI assay), 50 μM, seven day old stationary phase culture, 7 days): 39%
- viability at 50 µM [3, 6]: 38%

Compound: Cc1cc(O)c2c(c1)C(=O)c1cc(O)cc(O)c1C2=O [NSC408120, Emodin]
- viability at 50 µM [2, 4]: 18%
- viability at 50 µM [3, 6]: 31%

Compound: N=C(Nc1nc(-c2ccccn2)cc2ccccc12)c1ccccn1 [NSC637578, N-[3-(2-Pyridyl)isoquinolin-1-yl]-2-pyridinecarboxamidine]
- viability at 50 µM [2, 4]: 46%
- viability at 50 µM [3, 6]: 26%

Compound: COCCOC1=C(Cl)C(=O)c2c(O)ccc(O)c2C1=O [NSC659997, Naphthalene-1,4-dione, 2-chloro-5,8-dihydroxy-3-(2-methoxyethoxy)-]
- viability at 20 µM [2]: 40%
- viability at 50 µM [2, 4]: 1%
- viability at 20 µM [3]: 50%
- viability at 50 µM [3, 7]: 28%
- viability at 50 µM [3, 6]: 28%

Compound: Cc1cc(NS(=O)(=O)c2ccc(N)cc2)no1 [Smx, sulfamethoxazole]
- MIC [1]: ≤ 0.2 µg/mL

Compound: C[C@]1(Cn2ccnn2)[C@H](C(=O)O)N2C(=O)C[C@H]2S1(=O)=O [tazobactam]
- sensitivity of log phase / multiplying B. burgdorferi (words, FIG. 12) ([1]; MIC test): less potent

Compound: Benzoic acid, 2-hydroxy-, (2,6-pyridinediyldiethylidyne)dihydrazide, nickel complex [NSC617570]
- Residual viable cells (%) 20 μM (SYBR Green I/PI assay) [2]: 66%
- Residual viable cells (SYBR Green I/PI assay) [2]: 44%
- Residual viable cells (%) 20 μM (epifluorescence microscope counting) [3]: 50%
- Residual viable cells (epifluorescence microscope counting) [3]: 38%
- Residual viable cells (%) 50 μM (epifluorescence microscope counting) [3]: 38%

Compound: Nogalamycin [NSC70845]
- Residual viable cells (%) 20 μM (SYBR Green I/PI assay) [2]: 3%
- Residual viable cells (SYBR Green I/PI assay) [2]: 0%
- Residual viable cells (%) 20 μM (epifluorescence microscope counting) [3]: 15%
- Residual viable cells (epifluorescence microscope counting) [3]: 15%
- Residual viable cells (%) 50 μM (epifluorescence microscope counting) [3]: 15%
